Holding throughout (type): in vivo
In one assay the test system is Gaeumannomyces graminis. Description: Action against Gaeumannomyces graminis in wheat using pot trials (Use example FG-7). The note with it: wheat cv. JB Asano, pots, 14 days at 20° C; % of the untreated control (infection 96%); pyraclostrobin 2.5 g ai/100 kg seeds as seed treatment, B. pumilus INR7 10 ml broth per seed as drench. As for the experimental part: Pyraclostrobin was applied as commercial seed treatment formulation […], Ludwigshafen, Germany). The application of the pyraclostrobin was done as seed treatment and the seeds were treated in the BASF Seed Solutions Technology Center (SSTC) Limburgerhof using a batch lab treater. The respective amount of seeds was placed in the bowl of the treater and the slurry was dosed on the spinning disk. The B. pumilus INR7 were grown in shake flasks and used as fermentation broth with of at least 1×10^12 CFU per ml. This broth was added as a drench solution directly adjacent to the seeds with 10 ml for each seed kernel which makes 50 ml per pot. For the assessment, the plants were evaluated according to a 2 class evaluation (healthy, diseased). Those figures were converted into efficacies in % of the untreated control and the efficacy (E) was calculated as follows using Abbot's formula. Experimental setup was identical to Use example FG-6 unless described below. For the infection, rye kernels inoculated with Gaeumannomyces graminis were used. The trial was sown in 8 cm pots and a mix of peat substrate and sand (ratio 1:4) was used as a substrate. The pots were filled with the substrate and the rye kernels inoculated with Gaeumannomyces graminis were placed directly adjacent to the wheat seeds. […] JB Asano) were sown at a sowing depth of 1.5 cm and then covered with substrate. […]

Another assay has as its system Sclerotinia sclerotiorum. Description: Action against Sclerotinia sclerotiorum in soybean using pot trials (Use example FG-6). The settings on record: soy bean cv. Goriziana, pots, 14 days at 20° C; % of the untreated control (infection level 96%); pyraclostrobin 2.5 g ai/100 kg seeds as seed treatment, B. pumilus INR7 10 ml broth per seed as drench. The method, then:
Pyraclostrobin was applied as commercial seed treatment formulation […], Ludwigshafen, Germany). The application of the pyraclostrobin was done as seed treatment and the seeds were treated in the BASF Seed Solutions Technology Center (SSTC) Limburgerhof using a batch lab treater. The respective amount of seeds was placed in the bowl of the treater and the slurry was dosed on the spinning disk. The B. pumilus INR7 were grown in shake flasks and used as fermentation broth with of at least 1×10^12 CFU per ml. This broth was added as a drench solution directly adjacent to the seeds with 10 ml for each seed kernel which makes 50 ml per pot. For the infection, rye kernels inoculated with Sclerotinia sclerotiorum were used. The trial was sown in 8 cm pots and as a substrate a mix of peat substrate and sand in the ratio 1:4 was used. The pots were filled with the substrate and the rye kernels inoculated with Sclerotinia sclerotiorum were placed directly adjacent to the seeds. In each pot 5 soy bean seeds (cv. Goriziana) were sown at a sowing depth of 2 cm, then covered with substrate. For each treatment 5 replications were made. […] For the assessment, the plants were evaluated according to a 2 class evaluation (healthy, diseased). Those figures were converted into efficacies in % of the untreated control and the efficacy (E) was calculated as follows using Abbot's formula.

The test system of a further assay is wheat. Description: Improvement of plant height in wheat, pot trials (Use example H-2). The note with it: wheat cv. JB Asano, pots, 14 days at 20° C; untreated control = 100% (13.9 cm); pyraclostrobin 5 g ai/100 kg seeds as seed treatment, B. pumilus INR7 10 ml broth per seed as drench. The method, then: Pyraclostrobin was applied as commercial seed treatment formulation STAMINA (200 g/L a.i., BASF SE, Ludwigshafen, Germany).
In pot trials in Limburgerhof greenhouses, Bacillus pumilis INR7 was tested in wheat and maize as solo products and in combination with pyraclostrobin to show effects on plant height. The application of the pyraclostrobin was done as seed treatment and the seeds were treated in the BASF Seed Solutions Technology Center (SSTC) Limburgerhof using a batch lab treater. The respective amount of seeds was placed in the bowl of the treater and the slurry was dosed on the spinning disk.
The bacterials were grown in shake flasks and used as fermentation broth with a CFU of at least 1×10^12 per ml. This broth was added as a drench solution directly adjacent to the seeds with 10 ml for each seed kernel which makes 50 ml per pot.
The trial was sown in 8 cm pots and a mix of peat substrate and sand (ratio 1:4) was used as a substrate. […]
For the assessment, the plant height from all plants was measured in cm. […]
The expected relative plant height of active compound combinations were determined using Colby's formula (Colby, S. R. “Calculating synergistic and antagonistic responses of herbicide combinations”, Weeds 15, pp. 20-22, 1967) and compared with the observed efficacies. […]

With Pyraclostrobin, the Observed efficacy worked out at 5.0% with Gaeumannomyces graminis and 16.7% in the assay on Sclerotinia sclerotiorum. Also, in the assay with wheat, the “Observed relative plant height” value was 99.4%.

Source of the values: patent publication US20160100585A1, “Pesticidal Mixtures” (priority 2012, published 2016).
